Data on 1 compound can be found in paper PMC8958505, “Discovery of Potential Neuroprotective Agents against Paclitaxel-Induced Peripheral Neuropathy” (Journal of Medicinal Chemistry, 2022).

One data set addresses T1, CYP 2C9 (Homo sapiens, UniProt P11712).
T1 construct: host or cells: baculovirus-infected insect cells (supersomes)
Kind of data set: Cytochrome P450 testing, CYP 2C9. Particulars: diclofenac 4-hydroxylation; read-out: Concentration of inhibition (IC50), CYP 2C9. The data set is classed as in vitro ADME. From the text:
Cytochrome P450 testing of CN016
The effects of CN016 on the activity of six specific human liver cytochrome P450 isozymes (CYP 1A2, 2C9, 2C19, 2D6, 2E1, 3A4) expressed in baculovirus-infected insect cell supersomes were studied. The reactions used to measure the activity of these enzymes were phenacetin O-deethylation (1A2), diclofenac 4-hydroxylation (2C9), mephenytoin 4-hydroxylation (2C19), dextromethorphan O-demethylation (2D6), chlorzoxazone 6-hydroxylation (2E1) and testosterone 6-hydroxylation (3A4).
Furafylline, sulfaphenazole, tranylcypromine, quinidine, diethyldithiocarbamate and azamulin were used as reference inhibitors of these enzymes. Incubation mixtures containing no CN016 or reference inhibitors were used as controls. The tested result […]
Table S4. Result of Cytochrome P450 testing of CN016

Another data set deals with Dopamine D3 (Homo sapiens, UniProt P35462). Kind of data set: LeadProfilingScreen: Dopamine D3. It is filed as binding.
A further data set concerns the target Adrenergic α1A (Homo sapiens, UniProt P35348). Kind of data set: LeadProfilingScreen: Adrenergic α1A. It is filed as binding.

Where a name gives a salt, the structure may show the parent alone. Some results are limits rather than exact numbers.

Dopamine D3, sequence (P35462 whole entry): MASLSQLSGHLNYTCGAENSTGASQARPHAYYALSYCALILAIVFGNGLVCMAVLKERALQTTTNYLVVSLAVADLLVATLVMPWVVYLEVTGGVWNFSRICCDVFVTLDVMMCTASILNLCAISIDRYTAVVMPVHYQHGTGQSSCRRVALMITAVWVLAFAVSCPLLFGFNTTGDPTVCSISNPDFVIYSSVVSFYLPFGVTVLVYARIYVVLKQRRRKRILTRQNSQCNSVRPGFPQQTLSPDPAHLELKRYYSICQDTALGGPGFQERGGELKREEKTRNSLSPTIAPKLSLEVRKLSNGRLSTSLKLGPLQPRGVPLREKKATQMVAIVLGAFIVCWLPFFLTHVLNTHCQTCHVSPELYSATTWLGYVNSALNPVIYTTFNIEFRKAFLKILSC
T1 sequence (P11712 whole entry): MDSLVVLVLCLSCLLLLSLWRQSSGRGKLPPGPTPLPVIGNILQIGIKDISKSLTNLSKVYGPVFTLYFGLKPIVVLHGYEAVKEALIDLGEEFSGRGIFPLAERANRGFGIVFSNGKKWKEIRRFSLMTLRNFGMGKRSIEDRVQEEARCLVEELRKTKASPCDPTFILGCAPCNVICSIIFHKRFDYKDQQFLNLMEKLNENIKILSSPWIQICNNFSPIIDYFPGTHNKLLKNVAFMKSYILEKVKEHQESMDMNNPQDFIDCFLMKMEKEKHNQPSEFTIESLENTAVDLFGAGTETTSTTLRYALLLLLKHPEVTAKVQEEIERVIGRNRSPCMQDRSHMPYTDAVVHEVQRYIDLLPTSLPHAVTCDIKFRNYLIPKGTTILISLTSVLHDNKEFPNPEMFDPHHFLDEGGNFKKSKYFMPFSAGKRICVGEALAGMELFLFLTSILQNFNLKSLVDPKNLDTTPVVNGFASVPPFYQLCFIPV
Adrenergic α1A, sequence (P35348 whole entry): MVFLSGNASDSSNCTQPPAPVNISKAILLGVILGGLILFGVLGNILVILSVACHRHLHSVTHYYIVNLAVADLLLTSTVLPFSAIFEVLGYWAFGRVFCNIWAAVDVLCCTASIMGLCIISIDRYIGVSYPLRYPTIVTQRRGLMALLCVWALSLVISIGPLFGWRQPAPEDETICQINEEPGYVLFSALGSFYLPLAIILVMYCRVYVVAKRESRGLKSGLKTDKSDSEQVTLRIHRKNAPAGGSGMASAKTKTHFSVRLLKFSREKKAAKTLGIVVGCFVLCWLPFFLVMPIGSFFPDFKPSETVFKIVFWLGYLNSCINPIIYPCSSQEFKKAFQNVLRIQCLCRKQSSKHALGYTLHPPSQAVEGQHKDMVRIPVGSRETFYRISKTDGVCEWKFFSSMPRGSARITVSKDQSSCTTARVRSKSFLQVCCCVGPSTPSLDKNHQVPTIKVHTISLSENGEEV

As to `O=P(O)(O)CCN1CCC(Nc2cc(N3CCOCC3)nc(NCc3cn(CCCO)nn3)n2)CC1` [CN016, {2-[4-(2-{[1-(3-Hydroxy-propyl)-1H-[1,2,3]triazol-4-ylmethyl]-amino}-6-morpholin-4-yl-pyrimidin-4-ylamino)-piperidin-1-yl]-ethyl}-phosphonic Acid Hydrobromide Salt], the IC50 at CYP 2C9 was greater than 100 µM. Moreover, the results for the inhibition at 10 µM at Dopamine D3 and against Adrenergic α1A were -3% and -9%, respectively.
